Laboratory results published in patent US5955500A (G. D. Searle & Co., priority 1997, dated 1999).
Like-named read-outs stand apart in the source and are kept apart here.

Legend:
[1] = tested on: isolated working rat heart; conditions: R 950 ng/ml
canine heart = conditions: for AH time / Heart rate / Mean arterial pressure: mean ± SE
Experimental: Fourteen adult mongrel dogs of either sex weighing between 19 and 25 kg were prepared for chronic electrophysiologic investigation by implanting epicardial electrodes and an indwelling aortic catheter. The dogs were fasted overnight and initially anesthetized with halothane on the day of surgery. After tracheal intubation, anesthesia was maintained with isoflurane and oxygen via positive pressure ventilation to keep end tidal carbon dioxide within the normal range. Muscular relaxation was induced by pancuronium. A right thoracotomy was performed in the fifth intercostal space. Three bipolar electrode pairs were sutured to the epicardial surface of the right atrial appendage and on the right and left ventricular apex (FIG. 5). A bipolar electrode was sutured to the right atrium close to the anatomical region of the sinoatrial node. A bipolar plunge electrode was placed into base of the interventricular septum to record a His bundle electrogram. An indwelling arterial catheter was placed into the aorta through the left femoral artery after surgical exposure of the artery at the inner side of the hind limb. All electrode leads were subcutaneously tunneled and exited through the skin between the scapulae. Incisions were closed in anatomic fashion and standard postoperative methods of analgesia were provided with 0.015 mg/kg of buprenorphine (Buprenex®, Reckitt & Colman, Hull, UK) and two times of 25 mg/kg cefazolin (Cefazolin Sodium®, SoloPak Laboratories, Elk Groove Village, Ill.) and dogs were allowed to recover from surgery for a period of seven days prior to testing.
Electrical signals from the bipolar electrodes, after suitable amplification in a custom built preamplifier (gain 1000), were filtered in a separate custom designed and built common mode rejection amplifier with a bandpass filter of 10-1000 Hz and individually adjusted for signal strength (maximal gain 400). […] Right atrial appendage (RA), right ventricular apex (RVA) and His bundle electrograms (HB) were recorded, simultaneously. […] All measurements of conduction times were made during spontaneous sinus rhythm.
The His bundle electrode (HBE) was advanced into the base of the interatrial septum from the aortic root. The electrode was advanced from a point located just behind and to the right of the origin of the right coronary artery. The HBE was slowly advanced parallel to the aorta, inferiorly and slightly anteriorly until a well discernible His potential was recorded. AV conduction (AH) interval was measured as the time difference (ms) between the onset of the initial rapid deflection in the RA electrogram to the beginning of the His potential in the HB electrogram. His-ventricular (HV) conduction time interval (ms) was measured from the beginning of the His potential (HBE) to the initial deflection of the QRS complex wave (earliest left ventricular activation) in a simultaneously recorded surface ECG lead II.
As an indicator of automaticity, sinus node recovery time (SNRT) was determined by pacing the right atrial appendage (30 s at 180 and 200 beats/min at 2 msec pulse duration; 2×threshold). SNRT was measured from the last pacing spike to the first spontaneous atrial activity on the His bundle electrogram after cessation of pacing (ms).
A timed extrastimulus (S2) was delivered 300 ms after the preceding pacing spike (S1).
Verapamil was dissolved in 5% dextrose and water ([…]).
During the postoperative period, each dog was trained to stand quietly in a sling during electrophysiological monitoring. Prior to measurement, electrical signals in each dog were monitored to verify the absence of spontaneous arrhythmias other-than normal respiratory sinus arrhythmias.
From the resting dog, 5 channel records were obtained at a sampling rate of 1 kHz per channel for 7 min to determine the following conduction intervals: AH, HV, QRS, QT and HR. A corrected QT interval [QTc=QT interval in ms/ (R-R interval in s)^1/2 ] was also calculated.

[2] = tested on: isolated working rat heart
[3] = tested on: isolated working rat heart; remark: listed apart in the source

COc1ccc(CCN(C)CCC[C@](C#N)(c2ccc(OC)c(OC)c2)C(C)C)cc1OC [R-verapamil, reference compound]
Effect on peak systolic pressure (PSP), in words [1]: no apparent effect on PSP | Nature of cardiac effect (inotropic / chronotropic) ([1]; S 100 ng/ml): primarily chronotropic | Peak systolic pressure (PSP), significance vs predrug ([1]; S 100 ng/ml, R/S ratio 9.5): n.s. | AH time (canine heart; 0.1 mg/kg i.v., 0 min): 88 ± 5 ms | Heart rate (canine heart; 0.1 mg/kg i.v., 0 min): 103 ± 9 beats per min | Mean arterial pressure (canine heart; 0.1 mg/kg i.v., 0 min): 94 ± 3 mmHg | AH time (canine heart; 0.1 mg/kg i.v., 1 min): 94 ± 4 ms | Heart rate (canine heart; 0.1 mg/kg i.v., 1 min): 95 ± 7 beats per min | Mean arterial pressure (canine heart; 0.1 mg/kg i.v., 1 min): 95 ± 3 mmHg | AH time (canine heart; 0.1 mg/kg i.v., 2 min): 93 ± 5 ms | Heart rate (canine heart; 0.1 mg/kg i.v., 2 min): 98 ± 8 beats per min | Mean arterial pressure (canine heart; 0.1 mg/kg i.v., 2 min): 95 ± 2 mmHg | AH time (canine heart; 0.1 mg/kg i.v., 3 min): 93 ± 5 ms | Heart rate (canine heart; 0.1 mg/kg i.v., 3 min): 93 ± 7 beats per min | Mean arterial pressure (canine heart; 0.1 mg/kg i.v., 3 min): 95 ± 3 mmHg | AH time (canine heart; 0.1 mg/kg i.v., 4 min): 95 ± 5 ms | Heart rate (canine heart; 0.1 mg/kg i.v., 4 min): 91 ± 8 beats per min | Mean arterial pressure (canine heart; 0.1 mg/kg i.v., 4 min): 95 ± 3 mmHg | AH time (canine heart; 0.1 mg/kg i.v., 5 min): 95 ± 5 ms | Heart rate (canine heart; 0.1 mg/kg i.v., 5 min): 92 ± 8 beats per min | Mean arterial pressure (canine heart; 0.1 mg/kg i.v., 5 min): 95 ± 3 mmHg | AH time (canine heart; 0.2 mg/kg i.v., 0 min): 93 ± 4 ms | Heart rate (canine heart; 0.2 mg/kg i.v., 0 min): 106 ± 7 beats per min | Mean arterial pressure (canine heart; 0.2 mg/kg i.v., 0 min): 90 ± 3 mmHg | AH time (canine heart; 0.2 mg/kg i.v., 1 min): 99 ± 5 ms | Heart rate (canine heart; 0.2 mg/kg i.v., 1 min): 104 ± 8 beats per min | Mean arterial pressure (canine heart; 0.2 mg/kg i.v., 1 min): 97 ± 3 mmHg | AH time (canine heart; 0.2 mg/kg i.v., 2 min): 97 ± 5 ms | Heart rate (canine heart; 0.2 mg/kg i.v., 2 min): 99 ± 9 beats per min | Mean arterial pressure (canine heart; 0.2 mg/kg i.v., 2 min): 97 ± 3 mmHg | AH time (canine heart; 0.2 mg/kg i.v., 3 min): 98 ± 4 ms | Heart rate (canine heart; 0.2 mg/kg i.v., 3 min): 102 ± 9 beats per min | Mean arterial pressure (canine heart; 0.2 mg/kg i.v., 3 min): 94 ± 2 mmHg | AH time (canine heart; 0.2 mg/kg i.v., 4 min): 98 ± 4 ms | Heart rate (canine heart; 0.2 mg/kg i.v., 4 min): 96 ± 8 beats per min | Mean arterial pressure (canine heart; 0.2 mg/kg i.v., 4 min): 96 ± 2 mmHg | AH time (canine heart; 0.2 mg/kg i.v., 5 min): 99 ± 5 ms | Heart rate (canine heart; 0.2 mg/kg i.v., 5 min): 95 ± 9 beats per min | Mean arterial pressure (canine heart; 0.2 mg/kg i.v., 5 min): 92 ± 2 mmHg | AH time (canine heart; 0.4 mg/kg i.v., 0 min): 97 ± 4 ms | Heart rate (canine heart; 0.4 mg/kg i.v., 0 min): 123 ± 5 beats per min | Mean arterial pressure (canine heart; 0.4 mg/kg i.v., 0 min): 86 ± 2 mmHg | AH time (canine heart; 0.4 mg/kg i.v., 1 min): 106 ± 5 ms | Heart rate (canine heart; 0.4 mg/kg i.v., 1 min): 108 ± 6 beats per min | Mean arterial pressure (canine heart; 0.4 mg/kg i.v., 1 min): 94 ± 2 mmHg | AH time (canine heart; 0.4 mg/kg i.v., 2 min): 106 ± 4 ms | Heart rate (canine heart; 0.4 mg/kg i.v., 2 min): 109 ± 5 beats per min | Mean arterial pressure (canine heart; 0.4 mg/kg i.v., 2 min): 98 ± 3 mmHg | AH time (canine heart; 0.4 mg/kg i.v., 3 min): 104 ± 4 ms | Heart rate (canine heart; 0.4 mg/kg i.v., 3 min): 106 ± 7 beats per min | Mean arterial pressure (canine heart; 0.4 mg/kg i.v., 3 min): 97 ± 3 mmHg | AH time (canine heart; 0.4 mg/kg i.v., 4 min): 104 ± 5 ms | Heart rate (canine heart; 0.4 mg/kg i.v., 4 min): 108 ± 7 beats per min | Mean arterial pressure (canine heart; 0.4 mg/kg i.v., 4 min): 99 ± 3 mmHg | AH time (canine heart; 0.4 mg/kg i.v., 5 min): 105 ± 5 ms | Heart rate (canine heart; 0.4 mg/kg i.v., 5 min): 111 ± 6 beats per min | Mean arterial pressure (canine heart; 0.4 mg/kg i.v., 5 min): 98 ± 3 mmHg | Interaction between MAP and HR (multiple linear regression), in words (canine heart; increase in HR against drop in MAP): least increase in heart rate measured against a drop in blood pressure | Cardiac output (CO), significance vs baseline ([2]; R1 (50 ng/ml)): n.s. | Heart rate (HR), significance vs baseline ([2]; R1 (50 ng/ml)): n.s. | Peak systolic pressure (PSP), significance vs baseline ([2]; R1 (50 ng/ml)): n.s. | Cardiac output (CO), significance vs baseline ([2]; R2 (200 ng/ml)): n.s. | Heart rate (HR), significance vs baseline ([2]; R2 (200 ng/ml)): n.s. | Peak systolic pressure (PSP), significance vs baseline ([2]; R2 (200 ng/ml)): n.s. | Cardiac output (CO), significance vs baseline ([2]; R3 (450 ng/ml)): n.s. | Heart rate (HR), significance vs baseline ([2]; R3 (450 ng/ml)): n.s. | Peak systolic pressure (PSP), significance vs baseline ([2]; R3 (450 ng/ml)): n.s. | Peak systolic pressure (PSP), significance vs baseline ([2]; R4 (950 ng/ml)): n.s. | Effect on peak systolic pressure (PSP), in words ([2]; increasing levels of R): remains unaffected by increasing levels of R | Peak systolic pressure (PSP), significance vs predrug ([3]; R alone, R1-R4 (50-950 ng/ml cumulative)): n.s. | Cardiac output change, in words ([3]; R exceeding 200 ng/ml (R2)): Cardiac output appears to increase
